pIC50: −log10 of the molar value.

In this test the target is T1, rat CYP17 (Rattus norvegicus, UniProt P11715).
T1 construct: Rat testis tissue was collected and disrupted with 30 strokes of a glass homogenizer; from tissue; host or cells: rat testis (microsomal fraction)
T1 sequence (P11715 1-507): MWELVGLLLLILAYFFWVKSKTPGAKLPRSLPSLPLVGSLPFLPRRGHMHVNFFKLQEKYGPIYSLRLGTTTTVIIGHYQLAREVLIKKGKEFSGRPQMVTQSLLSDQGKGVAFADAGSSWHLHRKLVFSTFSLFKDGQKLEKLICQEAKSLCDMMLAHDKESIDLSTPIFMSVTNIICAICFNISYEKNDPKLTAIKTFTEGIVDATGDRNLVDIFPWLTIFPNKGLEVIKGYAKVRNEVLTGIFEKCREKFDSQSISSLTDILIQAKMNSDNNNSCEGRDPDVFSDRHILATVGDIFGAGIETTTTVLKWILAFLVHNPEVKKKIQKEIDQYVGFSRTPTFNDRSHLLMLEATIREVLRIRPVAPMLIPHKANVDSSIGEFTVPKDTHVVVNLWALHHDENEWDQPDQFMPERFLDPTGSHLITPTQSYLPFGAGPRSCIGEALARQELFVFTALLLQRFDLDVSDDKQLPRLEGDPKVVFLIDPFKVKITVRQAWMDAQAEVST
Put plainly: CYP17 inhibition assay in rat testicular microsomes. The conditions noted are these: 3H3-17α-hydroxypregnenolone substrate, 60 minutes at 37° C. The class given is biochemical. The protocol: CYP17 Inhibition Assay in Rat Testicular Microsomes (Rat CYP17) or Yeast Microsome Overexpressing Human CYP17
A. Materials • 1. NADPH (Sigma): A working stock was prepared by adding 25 μL of 6.5 mM NADPH in each tube. The final concentration of NADPH used in the assay was 325 μM. • 2. Potassium Phosphate Buffer: One molar (1M) solutions of K2HPO4 and KH2PO4 were prepared. Eight mL of the 1 M KH2PO4 and 1.98 mL of the 1 M K2HPO4 were combined and the pH was adjusted to 7.4. • 3. ^3H3-17α-hydroxypregnenolone (American Radiolabeled Chemicals, Inc., stock 1 μCi/μL): A 1:1 dilution of ^3H3-17α-hydroxypregnenolone in ethanol was prepared by combining 100 μL ^3H3-17α-hydroxypregnenolone+100 μL ethanol for one complete 96 well plate. For the reaction, 2 μL of the diluted ^3H3-17α-hydroxypregnenolone was added in each tube, i.e., 1 μCi/reaction. • 4. Microsome Isolation Buffer: The microsome isolation buffer was prepared by combining 250 mM Sucrose, 5 mM EDTA, 10 mM Tris HCl, 4 mM DTT, and adjusting to pH 7.4. • 5. TEG Buffer: The TEG buffer was prepared by combining 50 mM Tris HCl, 1 mM EDTA, and 20% Glycerol. • 6. Rat Testicular Microsomes: Rat testis tissue was collected and disrupted with 30 strokes of a glass homogenizer on ice with 250 μL of microsome isolation buffer, followed by centrifugation at 10,000 g for 10 minutes at 4° C. The supernatant was collected and centrifuged at 100,000 g for 45 minutes at 4° C. The pellet was dissolved in TEG Buffer and the protein was quantified. The homogenized microsome samples were then frozen at −80° C. • 7. Yeast Microsomes which overexpress the human CYP17 enzyme were obtained from Premas Biotech, India.
Potassium phosphate buffer (470 μL) was prepared as described above and was added to each well of a deep well plate. The test compound was diluted using a TECAN liquid handler and 5 μL of diluted compound was transferred to each well (96 deep well/1 mL). A solution (25 μL) of 6.5 mM NADPH was added (final concentration of 325 µM in the assay). ^3H3-17α-hydroxypregnenolone (2 μL of the working stock) was added to each tube. The plates were then pre-incubated for 15 minutes at 37° C. Following the pre-incubation, either 5 μL rat testicular microsomes (150-160 μg) or 5 μL of yeast microsomes expressing human CYP17 (1.7 pmol), was added. Incubation was at 37° C. for 60 minutes in the presence of oxygen. The plates were then placed in ice and chloroform (500 μL) was added, mixed well and incubated at 4° C. for 20 minutes. The plates were then centrifuged at 1000 rpm for 15 minutes at 4° C.
A portion (300 μL) of the aqueous solution was collected and mixed with a 5% aqueous suspension of activated charcoal (300 μL). The plates were then incubated at 4° C. for 30 minutes, after which the plates were centrifuged at 1000 rpm for 15 minutes at 4° C. From this, 125 μL of the aqueous solution was collected and plated into a 96 well plate. Microscint™ 40 [125 μL, Perkin-Elmer; containing a mixture of a polymer based on alkylphenolethoxylate (20-40%), diethanolamine-phosphoric acid ester ammonium salt (10-20%), sodium dioctyl sulphosuccinate (2.5-10%), triethyl phosphate (2.5-10%), 3,6-dimethyl-4-octyne-3,6-diol (≦2.5%), a polymer based on nonylphenolethoxylate (≦2.5%), diisopropyl naphthalene isomers (40-60%), 2,5-diphenyloxazole (≦2.5%), and 9,10-dimethylanthracene] was added and mixed well. After 30 minutes of incubation, the samples were analyzed with a MicroBeta® Trilux microplate liquid scintillation counter and luminometer (Perkin-Elmer).

As a reminder, the pIC50 is the IC50 on a negative log10 scale, so that one unit is a factor of ten. Higher therefore signals a low IC50. In the case of `CCC(c1cnc(-c2cccc(F)c2)s1)n1ccnc1` (stereo not drawn) [Example 1, 5-(1-(1H-imidazol-1-yl)propyl)-2-(3-fluorophenyl)thiazole], the pIC50 is > 7.30.

As for `CCC(c1ccc(-c2ccc(OC)cc2)s1)n1ccnc1` (stereo not drawn) [Example 3, 1-(1-(5-(4-methoxyphenyl)thiophen-2-yl)propyl)-1H-imidazole], the pIC50 was > 7.30.

With `CCC(c1ccc(-c2ccc(O)cc2)s1)n1ccnc1` (stereo not drawn) [Example 4, 4-(5-(1-(1H-imidazol-1-yl)propyl)thiophen-2-yl)phenol], the pIC50 is > 7.30.

Turning to `CCOC(=O)c1ccc(-c2ccc(C(CC)n3ccnc3)nc2)cc1` (stereo not drawn) [Example 5, Ethyl 4-(6-(1-(1H-imidazol-1-yl)propyl)pyridin-3-yl)benzoate], the pIC50 is 6.70 to 7.30.

Compound `CCC(c1ccc(-c2ccc(C(=O)O)cc2)cn1)n1ccnc1` (stereo not drawn) [Example 6, 4-(6-(1-(1H-imidazol-1-yl)propyl)pyridin-3-yl)benzoic acid] gave a pIC50 of 5.00 to 6.70.

`CCC(c1ccc(-c2cccc(OC)c2)cn1)n1ccnc1` (stereo not drawn) [Example 7, 2-(1-(1H-imidazol-1-yl)propyl)-5-(3-methoxyphenyl)pyridine]: the pIC50 is > 7.30.

Consider `CCC(c1ccc(-c2cccc(O)c2)cn1)n1ccnc1` (stereo not drawn) [Example 8, 3-(6-(1-(1H-imidazol-1-yl)propyl)pyridin-3-yl)phenol], for which the pIC50 was > 7.30.

Take `CCC(c1ccc(-c2ccc(C(=O)NC)cc2)cn1)n1ccnc1` (stereo not drawn) [Example 9, 4-(6-(1-(1H-imidazol-1-yl)propyl)pyridin-3-yl)-N-methylbenzamide]: the negative-log IC50 (pIC50) was > 7.30.

For `CCC(c1ccc(-c2ccc(C(N)=O)cc2)cn1)n1ccnc1` (stereo not drawn) [Example 10, 4-(6-(1-(1H-imidazol-1-yl)propyl)pyridin-3-yl)benzamide], the pIC50 is > 7.30.

As for `CCC(c1ccc(-c2ccc(COCOC)cc2)cn1)n1ccnc1` (stereo not drawn) [Example 11, 2-(1-(1H-imidazol-1-yl)propyl)-5-(4-((methoxymethoxy)methyl)-phenyl)pyridine], the pIC50 was 6.70 to 7.30.

On to `CC(c1ccc(-c2ccc(F)cc2)cn1)n1ccnc1` (stereo not drawn) [Example 12, 2-(1-(1H-imidazol-1-yl)ethyl)-5-(4-fluorophenyl)pyridine], for which the pIC50 is > 7.30.

On to `CC(c1ccc(-c2ccoc2)cn1)n1ccnc1` (stereo not drawn) [Example 13, 2-(1-(1H-imidazol-1-yl)ethyl)-5-(furan-3-yl)pyridine], for which the pIC50 is > 7.30.

Compound `CC(c1ccc(-c2ccc(N)cc2)cn1)n1ccnc1` (stereo not drawn) [Example 14, 4-(6-(1-(1H-imidazol-1-yl)ethyl)pyridin-3-yl)aniline] gave a pIC50 of 6.70 to 7.30.

For the compound `COc1ccc(-c2ccc(C(C)n3ccnc3)nc2)cc1` (stereo not drawn) [Example 15, 2-(1-(1H-imidazol-1-yl)ethyl)-5-(4-methoxyphenyl)pyridine], the pIC50 is 6.70 to 7.30.

As for `CC(c1ccc(-c2ccc(O)cc2)cn1)n1ccnc1` (stereo not drawn) [Example 16, 4-(6-(1-(1H-imidazol-1-yl)ethyl)pyridin-3-yl)phenol], the pIC50 is > 7.30.

Consider `CCC(c1ccc(-c2ccc(C#N)cc2)cn1)n1ccnc1` (stereo not drawn) [Example 17, 4-[6-(1-Imidazol-1-yl-propyl)-pyridin-3-yl]-benzonitrile], for which the negative-log IC50 (pIC50) was > 7.30.

Regarding `CCC(c1ccc(-c2ccccc2C#N)cn1)n1ccnc1` (stereo not drawn) [Example 18, 2-(6-(1-(1H-imidazol-1-yl)propyl)pyridin-3-yl)benzonitrile], the pIC50 was > 7.30.

On to `CCC(c1nnc(-c2ccc(F)cc2)s1)n1ccnc1` (stereo not drawn) [Example 19, 2-(1-(1H-imidazol-1-yl)propyl)-5-(4-fluorophenyl)-1,3,4-thiadiazole], for which the negative-log IC50 (pIC50) is > 7.30.

Turning to `CC(c1ccc(-c2ccc(=O)n(C)c2)s1)n1ccnc1` (stereo not drawn) [Example 20, 5-(5-(1-(1H-imidazol-1-yl)ethyl)thiophen-2-yl)-1-methylpyridin-2(1H)-one], the pIC50 was > 7.30.

For `CC(c1ccc(-c2ccc(=O)n(C(C)C)c2)s1)n1ccnc1` (stereo not drawn) [Example 21, 5-(5-(1-(1H-imidazol-1-yl)ethyl)thiophen-2-yl)-1-isopropylpyridin-2(1H)-one], the pIC50 is > 7.30.

Take `CC(c1cnc(-c2ccc(C#N)cc2)s1)n1ccnc1` (stereo not drawn) [Example 22, 4-(5-(1-(1H-imidazol-1-yl)ethyl)thiazol-2-yl)benzonitrile]: the pIC50 was > 7.30.

With `CC(C)CC(c1ccc(-c2ccc(O)cc2)s1)n1ccnc1` (stereo not drawn) [Example 23, 4-(5-(1-(1H-imidazol-1-yl)-3-methylbutyl)-thiophen-2-yl)phenol], the pIC50 was > 7.30.

For the compound `COc1ccc(-c2ccc(C(C)(C)n3ccnc3)s2)cc1` [Example 24, 1-(2-(5-(4-methoxyphenyl)-thiophen-2-yl)-propan-2-yl)-1H-imidazole], the pIC50 is > 7.30.

`COc1ccc(-c2ccc(C(C)n3ccnc3)s2)cn1` (stereo not drawn) [Example 25, 5-[5-(1-Imidazol-1-yl-ethyl)-thiophen-2-yl]-2-methoxy-pyridine]: the pIC50 is > 7.30.

On to `CC(C)(c1ccc(-c2ccc(O)cc2)s1)n1ccnc1` [Example 26, 4-[5-(1-Imidazol-1-yl-1-methyl-ethyl)-thiophen-2-yl]-phenol], for which the pIC50 was > 7.30.

Turning to `CCC(c1ccc(-c2ccc(OC)cc2)o1)n1ccnc1` (stereo not drawn) [Example 27, 1-{1-[5-(4-Methoxy-phenyl)-furan-2-y]-propyl}-1H-imidazole], the pIC50 was > 7.30.

For `CC(c1cnc(-c2ccc(F)cc2F)s1)n1ccnc1` (stereo not drawn) [Example 28, 2-(2,4-Difluoro-phenyl)-5-(1-imidazol-1-yl-ethyl)-thiazole], the pIC50 was > 7.30.

For `CCC(c1ccc(-c2ccc(F)cc2)cn1)n1ccnc1` (stereo not drawn) [Example 29, 5-(4-Fluoro-phenyl)-2-(1-imidazol-1-yl-propyl)-pyridine], the pIC50 was > 7.30.

For `CCC(c1ccc(-c2ccc(O)cc2)o1)n1ccnc1` (stereo not drawn) [Example 30, 4-[5-(1-Imidazol-1-yl-propyl)-furan-2-yl]-phenol], the pIC50 was > 7.30.

In the case of `CCC(c1cnc(-c2ccc(NC(=O)OC(C)(C)C)cc2)s1)n1ccnc1` (stereo not drawn) [Example 31, {4-[5-(1-Imidazol-1-yl-propyl)-thiazol-2-yl]-phenyl}-carbamic acid tert-butyl ester], the pIC50 is > 7.30.

Consider `CCC(c1cnc(-c2ccc(F)cc2F)s1)n1ccnc1` (stereo not drawn) [Example 32, 2-(2,4-Difluoro-phenyl)-5-(1-imidazol-1-yl-propyl)-thiazole], for which the pIC50 is > 7.30.

As to `CCC(c1cnc(-c2ccc(F)cc2)s1)n1ccnc1` (stereo not drawn) [Example 33, 2-(4-Fluoro-phenyl)-5-(1-imidazol-1-yl-propyl)-thiazole], the pIC50 is > 7.30.

Consider `CC(c1ccc(-c2ccc(F)cc2)cn1)n1ccnc1` (stereo not drawn) [Example 34, 5-(4-Fluoro-phenyl)-2-(1-imidazol-1-yl-ethyl)-pyridine], for which the pIC50 was > 7.30.
